Assay results taken from patent publication US9150539B2, “Crystalline form of a reverse transcriptase inhibitor” (Merck Sharp & Dohme Corp., priority 2012, dated 2015).

Assay: Relative thermodynamic stability of crystalline anhydrous Forms I and II (competitive slurry experiments)
Type: physicochemical
Procedure: Competitive slurry experiments were conducted to determine the relative stability of anhydrous Form I and II.

Row | Compound | thermodynamic stability (at room temperature) | kinetic preference of form (at room temperature) | conversion rate from AHI to AHII (in solution, under general processing conditions)
1 | Cn1c(Cn2ccc(C(F)(F)F)c(Oc3cc(Cl)cc(C#N)c3)c2=O)n[nH]c1=O [anhydrous Form II, 3-chloro-5-({1-[(4-methyl-5-oxo-4,5-dihydro-1H-1,2,4-triazol-3-yl)methyl]-2-oxo-4-(trifluoromethyl)-1,2-dihydropyridin-3-yl}oxy)benzonitrile] | more thermodynamically stable |  | 
2 | Cn1c(Cn2ccc(C(F)(F)F)c(Oc3cc(Cl)cc(C#N)c3)c2=O)n[nH]c1=O [anhydrous Form I, 3-chloro-5-({1-[(4-methyl-5-oxo-4,5-dihydro-1H-1,2,4-triazol-3-yl)methyl]-2-oxo-4-(trifluoromethyl)-1,2-dihydropyridin-3-yl}oxy)benzonitrile] |  | kinetically favored | very slow
